Measurements from publication PMC8001472, “Novel Selective IDO1 Inhibitors with Isoxazolo[5,4-d]pyrimidin-4(5H)-one Scaffold” (Pharmaceuticals, 2021).

How the values were obtained:
Hep G2 cell line = test: Cytotoxicity, MTS cell proliferation assay; type: cell-based; conditions: Hep G2 cells, 10 μM, 24 h
Experimental: All active compounds were additionally evaluated on a cellular level, starting with the determination of cytotoxicity on Hep G2 cell line using the MTS assay (Figure 3), where inner salt of [3-(4,5-dimethylthiazol-2-yl)-5-(3-carboxymethoxyphenyl)-2-(4-sulfophenyl)-2H-tetrazolium is converted to formazan product, its quantity is directly proportional to the number of living cells. Since the majority of compounds were only partially soluble in a cell medium at concentrations above 100 μM, their effect on cell viability was measured at 50 μM, 10 μM, and 1 μM. […] Taken together, the results obtained from cellular tests reminded us of the necessity to consider the physicochemical properties of compounds even at the early stages of design.
Cytotoxicity of the compounds was determined on HepG2 cell line using the MTS cell proliferation assay (CellTiter 96 AQueous One Solution Cell Proliferation Assay, Promega, Madison, WI, USA). The cells were seeded in 96-well plates (3 × 10^4 cells/well) and maintained in Dulbecco’s Modified Eagle’s Medium, supplemented with 10% fetal bovine serum (both from Thermo Fisher Scientific, Waltham, MA, USA) and 100 µg/mL gentamicin (Sigma-Aldrich, St. Louis, MO, USA). Following overnight incubation in a humidified chamber at 37 °C and 5% CO2 cells were treated with the compounds of interest at final concentrations of 1 µM, 10 µM, 50 µM, 100 µM, 150 µM, and 200 µM. After 24h incubation under the same conditions, 100 µL of the medium from each well were collected and mixed with 10 µL of MTS solution. Following 3h incubation, the absorbance (λABS = 490 nm) was measured using a microplate reader (Synergy H4; BioTek Instruments, Inc., Winooski, VT, USA). The results are expressed as means of triplicates ± standard deviation of three independent experiments.

IDO1 = IDO1 (Homo sapiens, UniProt P14902); test: hIDO1 inhibitory potency evaluation (fluorescence assay, NFK-derived fluorophore); type: biochemical; parameters: gene encoding human IDO1 residues 6-403 His-tagged at the N-terminus; His tag (N); made in house; host or cells: Escherichia coli NiCo21; conditions: for IC50: recombinant hIDO1, mean ± SD of at least two independent determinations, read-out: IDO1 IC50
hTDO = target: T1, hTDO (Homo sapiens, UniProt P48775); test: hTDO inhibitory potency evaluation (fluorescence assay); type: biochemical; conditions: 100 µM compound; n.a. = not active; read-out: TDO % of Inhibition @ 100 µM
T1 construct: purchased Vinci-Biochem
Experimental: (§1) Additionally, to determine IDO1 selectivity, all final compounds were assayed for their inhibitory potencies towards hIDO2 and hTDO. For this purpose, two new protocols were developed based on the published fluorescence assay for hIDO1 [25]. Sodium ascorbate, methylene blue, and bovine catalase were used in the same concentrations as for hIDO1. 50 mM phosphate buffers with pH values of 7.5 and 7.0 were used for hIDO2 and hTDO, respectively, as has been already mentioned before. First, the activities of hIDO2 and hTDO were determined at four different concentrations. […] Additionally, the effect of DMSO concentration on enzyme activity was investigated. […] The optimal hIDO2 and hTDO assay concentrations of the substrate L-Trp were determined to be 4 mM and 500 μM, respectively.
The activity of the compounds on hTDO was determined according to the previously reported fluorescence protocol for hIDO1 [25] and reported absorbance protocols for hTDO [30] with several modifications. Recombinant hTDO was purchased from Vinci-Biochem (Vinci-Biochem, Vinci, Italy), bovine catalase was purchased from Sigma-Aldrich (Sigma-Aldrich, St. Louis, MO, USA). Prior to the measurement of activity for compounds, the enzyme activity was determined, and optimal assay enzyme concentration was selected. The amounts of reagents needed to perform the assay were optimized. Briefly, the reagents needed were dissolved in 50 mM potassium phosphate buffer (pH 7.0, 0.01%, v/v Tween 20), the reaction was performed in black 384-well microplates. After the addition of 1 μL of 100 mM sodium ascorbate neutralized with equimolar amount of 1 M NaOH, 1 μL of 100 μM methylene blue, 1 μL of 1 mg/mL bovine catalase, 0.5 μL of DMSO (negative control) or solution of a compound, 5 μL of 300 nM hTDO and 1.5 μL of 3.3 mM L-Trp were added and the microplate was incubated for 60 min at 37 °C. The reaction was quenched with the addition of 10 μL of 400 mM piperidine solution in MilliQ water and the formation of the examined fluorophore began following incubation at 65 °C for 20 min. The production of NFK-derived fluorophore (λEX = 400 nm, λEM = 500 nm) was measured using a microplate reader (Synergy H4; BioTek Instruments, Inc., Winooski, VT, USA) after 60 min post-incubation at room temperature. In the preliminary testing compounds were tested at 100 μM with activities determined as residual activities—RA, which were calculated to% of inhibition, presented in Table 1 and Table 2 (% of inhibition = 100% − RA). All determinations were carried out in duplicates.

hIDO2 = target: T2, hIDO2 (Homo sapiens, UniProt Q6ZQW0); test: hIDO2 inhibitory potency evaluation (fluorescence assay); type: biochemical; conditions: 100 µM compound; n.a. = not active; read-out: IDO2 % of Inhibition @ 100 µM
T2 construct: purchased Vinci-Biochem
T2 sequence (Q6ZQW0 1-407): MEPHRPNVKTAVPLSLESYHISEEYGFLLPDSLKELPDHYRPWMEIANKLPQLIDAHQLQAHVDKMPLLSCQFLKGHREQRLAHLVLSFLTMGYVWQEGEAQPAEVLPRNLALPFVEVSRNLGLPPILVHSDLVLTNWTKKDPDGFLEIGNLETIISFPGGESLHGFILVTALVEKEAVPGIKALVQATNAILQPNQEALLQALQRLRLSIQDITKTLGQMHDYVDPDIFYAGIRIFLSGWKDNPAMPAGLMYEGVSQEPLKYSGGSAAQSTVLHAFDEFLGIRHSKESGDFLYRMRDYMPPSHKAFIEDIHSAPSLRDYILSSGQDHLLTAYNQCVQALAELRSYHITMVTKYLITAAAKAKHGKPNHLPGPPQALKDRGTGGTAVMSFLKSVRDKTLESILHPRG
Experimental: as §1
Activity of the compounds on hIDO2 was determined according to the previously reported fluorescence protocol for hIDO1 [25] and reported absorbance protocols for hIDO2 [30, 36] with several modifications. Recombinant hIDO2 was purchased from Vinci-Biochem (Vinci-Biochem, Srl, Vinci, Italy), bovine catalase was purchased from Sigma-Aldrich (Sigma-Aldrich, St. Louis, MO, USA). Prior to the measurement of activity for compounds, the enzyme activity was determined and optimal assay enzyme concentration was selected. The amounts of reagents needed to perform the assay were optimized. Briefly, the reagents needed were dissolved in 50 mM potassium phosphate buffer (pH 7.5, 0.01%, v/v Tween 20), the reaction was performed in black 384-well microplates. After the addition of 1 μL of 100 mM sodium ascorbate neutralized with an equimolar amount of 1M NaOH, 1 μL of 100 μM methylene blue, 1 μL of 1 mg/mL bovine catalase, 0.5 μL of DMSO (negative control) or solution of a compound in DMSO, 5 μL of […] hIDO2 and 1.5 μL of 26.7 mM L-Trp were added and the microplate was incubated for 60 min at 37 °C. The reaction was quenched with the addition of 10 μL of 400 mM piperidine solution in MilliQ water and the formation of the examined fluorophore began following incubation at 65 °C for 20 min. The production of NFK-derived fluorophore (λEX = 400 nm, λEM = 500 nm) was measured using a microplate reader (Synergy H4; BioTek Instruments, Inc., Winooski, VT, USA) after 60 min post-incubation at room temperature. In the preliminary testing compounds were tested at 100 μM with activities determined as residual activities—RA, which were calculated to% of inhibition, presented in Table 1 and Table 2. (% of inhibition = 100% − RA). All determinations were carried out in duplicates.

IDO1, sequence (P14902 6-403): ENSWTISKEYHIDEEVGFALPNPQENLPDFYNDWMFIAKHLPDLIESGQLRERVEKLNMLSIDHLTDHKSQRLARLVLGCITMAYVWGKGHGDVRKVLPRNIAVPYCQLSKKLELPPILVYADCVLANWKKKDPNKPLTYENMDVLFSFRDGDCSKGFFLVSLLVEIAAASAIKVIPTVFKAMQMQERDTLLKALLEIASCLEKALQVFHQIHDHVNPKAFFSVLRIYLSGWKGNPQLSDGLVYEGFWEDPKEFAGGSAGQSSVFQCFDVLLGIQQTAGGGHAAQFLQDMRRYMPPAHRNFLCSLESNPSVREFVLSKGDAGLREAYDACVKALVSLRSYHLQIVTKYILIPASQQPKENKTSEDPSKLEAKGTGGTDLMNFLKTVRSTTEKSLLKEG
T1 sequence (P48775 whole entry): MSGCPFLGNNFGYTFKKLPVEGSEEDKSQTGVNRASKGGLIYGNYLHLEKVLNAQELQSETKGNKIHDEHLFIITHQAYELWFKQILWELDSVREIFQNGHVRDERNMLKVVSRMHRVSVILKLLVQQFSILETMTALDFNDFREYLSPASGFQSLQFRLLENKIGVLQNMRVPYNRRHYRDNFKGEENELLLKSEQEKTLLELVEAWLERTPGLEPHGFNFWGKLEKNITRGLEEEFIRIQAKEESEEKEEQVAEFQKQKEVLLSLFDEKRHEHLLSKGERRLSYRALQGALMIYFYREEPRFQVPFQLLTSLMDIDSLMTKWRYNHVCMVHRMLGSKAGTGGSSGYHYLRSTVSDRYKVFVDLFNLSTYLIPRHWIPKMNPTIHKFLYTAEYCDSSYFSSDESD

O=C(Cn1cnc2onc(-c3ccc(F)c(Br)c3)c2c1=O)Nc1ccc([N+](=O)[O-])cc1 [Compound 49]
effect on cell viability (Hep G2 cell line): significantly impacted cell viability | IC50 (IDO1): 96 µM | inhibition at 100 µM (hTDO): 10 ± 2% | melting point: 226 to 228 °C

O=C(Cn1cnc2onc(-c3ccc(F)cc3)c2c1=O)Nc1cccc([N+](=O)[O-])c1 [Compound 24]
inhibition at 100 µM (IDO1; 100 µM compound, n.a. = not active, read-out: IDO1 % of Inhibition @ 100 µM): 30 ± 2% | inhibition at 100 µM (hTDO): 25 ± 8% | melting point: 232 to 235 °C | inhibition at 100 µM (hIDO2): 39 ± 5%

COC(=O)c1ccc(NC(=O)Cn2cnc3onc(-c4ccccc4)c3c2=O)cc1 [Compound 39]
effect on cell viability (Hep G2 cell line): significantly impacted cell viability | hIDO1 inhibition (in words) (IDO1): low micromolar range | IC50 (IDO1): 22 µM | melting point: 200 to 202 °C | inhibition at 100 µM (hIDO2): 11 ± 7%

O=C(Cn1cnc2onc(-c3ccc(F)cc3)c2c1=O)Nc1ccc([N+](=O)[O-])cc1 [Compound 25]
IC50 (IDO1): 98 µM | inhibition at 100 µM (hTDO): 24 ± 7% | melting point: 200 to 203 °C | inhibition at 100 µM (hIDO2): 28%
